US11944612B2, “Dosing regimens for 2-hydroxy-6-((2-(1-isopropyl-1H-pyrazol-5-yl)pyridin-3-yl)methoxy)benzaldehyde” (Global Blood Therapeutics, Inc., priority 2015, dated 2024)

Legend:
[1] = Phase I study: whole blood and plasma pharmacokinetics of GBT440 (LC-MS-MS); assay type: in vivo, human; details: for half-life: human, whole blood, oral
Protocol: (§1) The following example presents a Phase I randomised, placebo-controlled, double-blind, single and multiple ascending dose study of the tolerability and pharmacokinetics of Compound 1 (GBT440) in healthy subjects and patients with Sickle Cell Disease.
(§2) Experimental: GBT440 • Subjects randomized 6:2 to receive daily oral dosing of GBT440 or placebo for 1 day (single dose) and up to 28 days (multiple dose)
Analysis of whole blood was performed as follows. 50 μL of diluted whole blood was mixed with 20 μL of GBT1592 (GBT440-D7) solution in acetonitrile. 0.3 mL of 0.1M citrate buffer solution (pH 3) was added to the sample, and the sample mixed briefly by vortexing, followed by sonication for 10 minutes. 2.0 mL methyl tert butyl ether (MTBE) was added to the sample, and the sample was capped, and mixed thoroughly by vortexing at high speed for 20 minutes. The sample was then centrifuged at 3300 rpm at room temperature for 10 minutes. 0.2 mL of the clear organic layer of the centrifuged sample was then transferred to a clean 96-well 2-mL plate, and the solvent was evaporated to dryness. […] The resultant reconstituted extract was analyzed by liquid chromatography mass spectrometry (LCMS).
For the LCMS, a Sciex API 4000 LC-MS-MS was equipped with an HPLC column. The peak area of the m/z 338.1→158.1 GBT440 product ion was measured against the peak area of the m/z 345.2→159.1 GBT1592 (GBT440-D7) internal standard product ion.
The whole blood samples, obtained as described above, were analyzed for pharmacokinetic parameters and RBC:Plasma ratios, as follows.
Terminal half-life and other pharmacokinetic parameters were calculated using Phoenix WinNonlin software. Apparent terminal half-life (t1/2) values were calculated as ln(2)/k, where k is the terminal elimination rate constant which is obtained by performing a linear regression on the terminal phase of a plot of the natural logarithm (ln) of concentration versus time.
RBC:Plasma ratio was calculated using the equation below. […]

hemoglobin [2] = biological target: T1, hemoglobin (Homo sapiens, UniProt P68871+P69905, E7V); test: Whole blood hemoximetry (oxygen equilibrium curves, % Hb modification); assay type: in vivo; details: 500 mg
T1 construct: from tissue; host or cells: whole blood (red blood cells) of study subjects
Protocol: Whole blood hemoximetry was used to measure oxygen equilibration. Blood from healthy volunteers and sickle cell disease (SCD) patients was drawn into 1.8 mL sodium citrate tubes. These samples were stored overnight at 4° C. prior to hemoximetry measurements. Based upon the hematocrit of the blood, either 50 μL or 100 μL of blood was diluted into 5 mL of 37° C. TES buffer (30 mM TES, 130 mM NaCl, 5 mM KCl, pH 7.4 at 25° C.). Diluted sample were loaded into TCS Hemox Analyzer cuvettes and oxygenated for twenty minutes using compressed air. After oxygenation, the samples were deoxygenated using nitrogen gas until the pO2 reached 1.6 millimeters of mercury (mm Hg). Data during this deoxygenation step was collected into Oxygen Equilibrium Curve (OEC) files using the TCS Hemox Analytical Software (HAS). OEC files were then analyzed to obtain the p50 (the partial pressure of oxygen at which 50% of hemoglobin in a sample is saturated with O2) and the p20 (the partial pressure of oxygen at which 20% of hemoglobin in a sample is saturated with O2). Delta p20 values (p20predose−p20sample time) were then used to calculate the % Hb Modification.

[3] = Phase I study: hemolysis measures / response parameters in subjects with SCD; assay type: in vivo, human
From the text: as §1
Other Outcome Measures: • Percentage of sickled cells under ex vivo conditions [Time Frame: 30 days] • Effect of GBT440 on hemolysis as measured by LDH, direct bilirubin, hemoglobin, and reticulocyte count [Time Frame: 30 days] • Change from baseline in pain as measured by visual analog scale [Time Frame: 30 days] • Change from baseline in fatigue as measured by questionnaire [Time Frame: 30 days] • Exercise capacity as measured by 6-minute walk test [Time Frame: 30 days]
as §2
Inclusion Criteria: • Healthy male or female of non-child bearing potential; 18 to 55 years old; are non-smokers and have not used nicotine products within 3 months prior to screening. • Male or female, 18 to 60 years old, with sickle cell disease (hemoglobin SS) not requiring chronic blood transfusion therapy; without hospitalization in 30 days before screening or receiving blood transfusion within 30 days before screening; subjects are allowed concomitant use of hydroxyurea if the dose has been stable for the 3 months prior to screening. […]

sickle cells = test: Irreversibly sickled cells counted in peripheral blood smears; assay type: in vivo, human
From the text: To quantify irreversibly sickled cells (ISCs), six different fields were randomly selected and imaged at 40× magnification per slide. Each field contained 100 to 300 cells and >500 cells (in 3 or more fields) were counted per blood smear slide. Cells that were classically sickled shape or appeared linear (with length equal to or more than 3× the width) with irregular or pointed edges were counted as sickled. Elliptical red blood cells (also appearing linear but with length approximately twice the width) with smooth rounded edges were counted as normal. In general, isolated non-discoid cells with spiky turns were counted as sickled.
Morphological criteria for sickle cells included the following categories: (1) non-discoid irregular shaped cells with irregular or pointed edges; (2) elliptocytes with length more than twice the width and with irregular or pointed edges; and (3) irregular shaped elliptocytes.

hemoglobin [4] = biological target: hemoglobin (Homo sapiens, UniProt P68871+P69905); details: in vitro and in vivo; cited from earlier work
[5] = 500 mg (Cohort 12), n = 10, subjects with SCD
[6] = 700 mg (Cohort 11), n = 12, subjects with SCD
[7] = 1000 mg (500 mg twice daily, Cohort 14), n = 5, subjects with SCD

## CC(C)n1nccc1-c1ncccc1COc1cccc(O)c1C=O [Compound 1, 2-hydroxy-6-((2-(1-isopropyl-1h-pyrazol-5-yl)pyridin-3-yl)methoxy)benzaldehyde]
[1]; SCD subjects
  half-life: ~38.4 h
[1]; healthy subjects
  half-life: ~72 h
[1]; single and multiple dosing
  increase in GBT440 with dose: dose proportional increase
Hemoglobin [2]; 700 mg (FIG. 3)
  hemoglobin modification: proportional to dose
Hemoglobin [2]; 700 mg vs placebo, SCD subjects (FIG. 3)
  shift of the oxygen equilibrium curve: left shift of the oxygen equilibrium curve
[3]; [5]
  Hemoglobin, change from baseline to Day 28, median: 0.4 g/dL
  Lactate dehydrogenase, change from baseline to Day 28, median: −19.8%
  Reticulocytes, change from baseline to Day 28, median: −31.2%
  Unconjugated bilirubin, change from baseline to Day 28, median: −30.6%
[3]; 500 mg, 700 mg vs placebo (FIG. 4)
  change in hemoglobin over time: rapid and progressive rise in hemoglobin levels
[3]; 500 mg, 700 mg vs placebo (FIG. 5)
  percent change in reticulocytes over time: profound decline in reticulocytes
[3]; [6]
  Hemoglobin, change from baseline to Day 28, median: 0.7 g/dL
  Lactate dehydrogenase, change from baseline to Day 28, median: −11.9%
  Reticulocytes, change from baseline to Day 28, median: −37.0%
  Unconjugated bilirubin, change from baseline to Day 28, median: −42.6%
[3]; 700 mg compared to 500 mg (FIG. 4)
  hemoglobin response, higher dose level compared to lower: trend for a better response
[3]; [7]
  Hemoglobin, change from baseline to Day 28, median: 0.0 g/dL
  Lactate dehydrogenase, change from baseline to Day 28, median: −12.4%
  Reticulocytes, change from baseline to Day 28, median: −49.9%
  Unconjugated bilirubin, change from baseline to Day 28, median: −56.3%
[3]; higher GBT440 exposures, day 28 (FIG. 8)
  reticulocyte counts versus exposure: more profound reduction in reticulocyte counts
[3]; participants who achieved >20% Hb occupancy compared to those who did not
  hematologic response by Hb occupancy: improved hematologic response
Sickle cells; [5]
  Irreversibly sickled cells, change from baseline to Day 28, median: −56.4%
Sickle cells; 500 mg, 700 mg vs placebo, 28 day dosing period (FIG. 6)
  percent sickle cells over time: reduced sickle cells in the peripheral blood
Sickle cells; [6]
  Irreversibly sickled cells, change from baseline to Day 28, median: −45.9%
Sickle cells; [7]
  Irreversibly sickled cells, change from baseline to Day 28, median: −45.7%
Sickle cells; subject treated with 700 mg, day 1 vs day 28 (FIGS. 7A-7B)
  sickle cells in peripheral blood smears: marked reduction in sickle cells

## O=Cc1ccc(CO)o1 [Compound 5HMF, 5-hydroxymethyl-2-furfuraldehyde]
Hemoglobin [4]
  hemoglobin modulation: potent hemoglobin modulator both in vitro and in vivo
